This note sets out measurements from patent publication US20260115250A1, “METHODS OF TREATING AGE-RELATED MACULAR DEGENERATION” (Character Biosciences, Inc., priority 2022, published 2026).

Peptide text beside a SMILES is read from it.

The nature of experiment [1]: DMPC solubility assay, 0.5 mM DMPC (turbidity reduction). The class given is biochemical. A digest of the protocol:
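Peptides (100 μM final, or 3.16-100 μM for titrations) incubated with 0.5 mM DMPC in water for 15 minutes at room temperature. Turbidity read as absorbance at 405 nm; EC50 from non-linear regression, mean+SD over two runs.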

The subject of experiment [2] is ARPE-19 cells. In words: ARPE-19 cell lysis (Sytox Green). Type of experiment: cell-based, human. The conditions noted are these: 3.16-100 μM peptide, 2 h. As to the method:
These figures illustrate ARPE-19 cell lysis. ARPE-19 cells were grown in 96-well plates to 75-85% confluence. Peptides at 10 mM were diluted in serum-free DMEM:F12 media into a 20 μM working solution (a 2× solution). Sytox Green was prepared in serum-free DMEM:F12 at a 1 μM working solution (a 2× solution). Equivalent volumes of the peptide and Sytox Green solutions were added to empty 96-well plates and mixed gently. Final peptide concentration was 10 μM. ARPE-19 cells (˜80% confluent in 96-well plates) were washed with DPBS and then incubated in 100 μL of peptide/Sytox Green mixture for 2 h at 37° C. Cells were fixed in 4% paraformaldehyde solution in DPBS and then incubated in 10 μM Hoechst solution for 10 min, washed, and imaged on a Yokogawa CQ1 high-content imager. CellPathfinder software was used to count live/dead cells in 4 fields of view at 20× magnification. Percent (%) lysis was calculated by dividing the number of Sytox Green+ nuclei by the total number of Hoechst+ nuclei.
ARPE-19 cells were grown in 96-well plates to 75-85% confluence. Peptides at 10 mM were diluted in serum-free DMEM: F12 media to solutions between […]. Sytox Green was prepared in serum-free DMEM: F12 media at a 1 μM working solution. Equivalent volumes of the peptide and Sytox Green solutions were added to empty 96-well plates and mixed gently. Final peptide concentration was 3.16-100 μM. ARPE-19 cells (˜80% confluent in 96-well plates) were washed with DPBS and then incubated in 100 μL of peptide/Sytox Green mixture for 2 h at 37° C. Cells were fixed in 4% paraformaldehyde solution in DPBS and then incubated in 10 μM Hoechst solution for 10 min, washed, and imaged on a Yokogawa CQ1 high-content imager. CellPathfinder software was used to count live/dead cells in 4 fields of view at 20× magnification. Percent (%) lysis was calculated by dividing the number of Sytox Green+ nuclei by the total number of Hoechst+ nuclei. Non-linear regression was used to calculate EC50 values.

Experiment [3] deals with ARPE-19 cells. In words: ARPE-19 cholesterol import (BODIPY-Cholesterol). The class given is cell-based, human. As to conditions: ARPE-19, 0.37-30 μM peptide, FIG. 15. As to the method: (§1) FIG. 12 and FIGS. 14A-14B illustrate the results of ARPE-19 cholesterol import testing. ARPE-19 cells were seeded on 96-well plates at 25,000 cells per well and grown to confluence. A 2× solution of 500 μM DMPC and 50 μM BODIPY-Cholesterol were prepared in serum free DMEM: F12. Peptides were diluted to 20 μM in serum free DMEM: F12 (a 2× solution). Peptides were added to lipid solution in equal parts (60 μL each) and were incubated for 1 hour at 37° C. ARPE-19 cells were serum starved in serum free DMEM: F12 for 1 hour at 37° C. Peptide: Lipid complexes (100 μL total volume per well) were transferred to ARPE-19 cells for 2 hours at 37° C. Cells were washed, fixed, and intracellular fluorescence was read on Promega GloMax at 475 nm excitation, 500-550 emission. Fluorescence values were background corrected from no treatment conditions. Data are presented as mean+SD for two runs.
FIG. 15 illustrates ARPE-19 cholesterol import titration curves for a subset of the peptides. ARPE-19 cells were seeded on 96-well plates at 25,000 cells per well and grown to confluence. A 2× solution of 500 μM DMPC and 50 μM BODIPY-Cholesterol was prepared in serum free DMEM: F12. Peptides were diluted to 0.74-60 μM in serum free DMEM: F12 (2× solutions). Peptides were added to lipid solution in equal parts (60 μL each) to create final peptide concentrations of 0.37-30 µM and incubated for 1 hour at 37° C. ARPE-19 cells were serum starved in serum free DMEM: F12 for 1 hour at 37° C. Peptide: Lipid complexes (100 μL total volume per well) were transferred to ARPE-19 cells for 2 hours at 37° C. Cells were washed, fixed, and intracellular fluorescence was read on Promega GloMax at 475 nm excitation, 500-550 emission. Fluorescence values were background corrected from no treatment conditions. […]
ARPE-19 cells were seeded on 96-well plates at 25,000 cells per well and grown to confluence. […] Cells were washed, fixed, and intracellular fluorescence was read on Promega GloMax at 475 nm excitation, 500-550 emission. Fluorescence values were background corrected from no treatment conditions. […]

The test system of experiment [4] is ARPE-19 cells. In words: ARPE-19 GAG-dependent cholesterol import (with or without heparin). The class given is cell-based, human. As to conditions: ARPE-19, 10 μM peptide. As to the method:
as §1, with “ARPE-19” for “FIG. 12 and FIGS. 14A-14B illustrate the results of ARPE-19 cholesterol import testing. ARPE-19”, “BODIPY-Cholesterol with or without 100 µg/mL heparin was” for “BODIPY-Cholesterol were”, “and” for “and were”, “presented ±SD” for “presented as mean+SD”, “for 2” for “for two”

Experiment [5] concerns HepG2 cells. In words: HepG2 cholesterol import (BODIPY-Cholesterol). Type of experiment: cell-based. As to conditions: HepG2, peptide:lipid complexes from 30 μM diluted 1:3.
Experimental: HepG2 cells were seeded on a 96-well plate at 10,000 cells per well and grown to confluence. A solution of 500 μM DMPC and 50 μM BODIPY-Cholesterol was prepared in serum free EMEM. Peptides were diluted to 20 μM in serum free EMEM (a 2× solution). Peptides were added to lipid solution in equal parts (60 μL each) to create final 1× concentration and incubated for 1 hour at 37° C. HepG2 cells were serum starved in serum-free EMEM for 1 hour at 37° C. Peptide: Lipid complexes (100 μL total volume per well) were transferred to HepG2 cells for 2 hours at 37° C. Cells were washed, fixed, and intracellular fluorescence was read on Promega GloMax at 475 nm excitation, 500-550 emission. Fluorescence values were background corrected from no treatment conditions. Data are presented as mean+SD for two runs.
HepG2 cells were seeded on 96-well plates at 10,000 cells per well and grown to confluence. Peptide: Lipid complexes were created by preparing a solution of serum-free EMEM containing 30 μM peptide, 750 μM DMPC, and 75 μM BODIPY-Cholesterol. Peptide: Lipid complexes were serially diluted 1:3 for 5 concentrations, and incubated for 1 hour at 37° C. […] Cells were washed, fixed, and intracellular fluorescence was read on Promega GloMax at 475 nm excitation, 500-550 emission. Fluorescence values were background corrected from no treatment conditions. […]
Experiment [6] relates to HepG2 cells. Put plainly: HepG2 GAG dependent cholesterol import (with or without heparin). Type of experiment: cell-based. As to conditions: HepG2, 10 μM peptide, with or without 100 μg/mL heparin. The method, then: HepG2 cells were seeded on 96-well plates at 10,000 cells per well and grown to confluence. A 2× solution of 500 μM DMPC and 50 μM BODIPY-Cholesterol with or without 100 μg/mL heparin was prepared in serum free EMEM. Peptides were diluted to 20 μM in serum-free EMEM (a 2× solution). Peptides were added to lipid solution in equal parts (60 μL each) and incubated for 1 hour at 37° C. HepG2 cells were serum starved in serum-free EMEM for 1 hour at 37° C. Peptide: Lipid complexes (100 μL total volume per well) were transferred to HepG2 cells for 2 hours at 37° C. Cells were washed, fixed, and intracellular fluorescence was read on Promega GloMax at 475 nm excitation, 500-550 emission. Fluorescence values were background corrected from no treatment conditions. Data are presented ±SD for 2 runs.

Experiment [7] deals with LDLR (Homo sapiens, UniProt P01130). Put plainly: KD (µM). An excerpt:
Table printed on a drawing sheet, FIG. 23
Title: Buffer: HBS + 0.05% P20
Head of the field: KD (µM)
The patent's description of the figure: FIG. 23 is a table showing the binding kinetics results of LDLR binding assays (SPR), high surfactant preparation as described herein for select peptides shown in FIG. 1A-1I.
First copying reader's note: Middle of three side-by-side panels of FIG. 23; the KD cells hold value ± error together.
Where the first naming reader finds the target: description_of_the_figure: FIG. 23 is a table showing the binding kinetics results of LDLR binding assays (SPR)

LDLR, sequence (P01130 22-860 limits assumed): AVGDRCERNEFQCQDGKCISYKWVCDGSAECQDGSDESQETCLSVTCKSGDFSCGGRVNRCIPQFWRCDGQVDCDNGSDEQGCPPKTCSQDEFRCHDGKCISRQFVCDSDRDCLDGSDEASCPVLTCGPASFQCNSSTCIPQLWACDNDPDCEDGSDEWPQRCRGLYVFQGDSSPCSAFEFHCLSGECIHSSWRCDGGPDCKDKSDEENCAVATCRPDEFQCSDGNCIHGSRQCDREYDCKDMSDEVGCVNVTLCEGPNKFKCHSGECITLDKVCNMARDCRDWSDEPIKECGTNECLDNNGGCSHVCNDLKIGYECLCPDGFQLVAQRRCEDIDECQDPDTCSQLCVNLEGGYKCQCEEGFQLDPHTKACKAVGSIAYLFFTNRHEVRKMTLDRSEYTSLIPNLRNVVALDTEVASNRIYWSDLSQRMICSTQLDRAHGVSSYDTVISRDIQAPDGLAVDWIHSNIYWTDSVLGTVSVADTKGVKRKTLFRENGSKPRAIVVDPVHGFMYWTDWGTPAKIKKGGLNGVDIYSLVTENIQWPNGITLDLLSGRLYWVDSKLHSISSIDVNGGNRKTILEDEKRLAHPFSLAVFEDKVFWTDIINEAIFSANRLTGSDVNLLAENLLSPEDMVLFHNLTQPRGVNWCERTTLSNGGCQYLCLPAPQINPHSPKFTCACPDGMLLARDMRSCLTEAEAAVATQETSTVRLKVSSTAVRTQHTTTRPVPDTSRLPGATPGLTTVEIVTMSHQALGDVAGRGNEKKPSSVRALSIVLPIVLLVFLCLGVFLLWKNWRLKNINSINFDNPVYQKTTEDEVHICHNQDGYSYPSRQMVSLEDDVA

In general, EC50 refers to the concentration that produces a half-maximal response. Read a low EC50 as greater potency. `CSCC[C@H](NC(=O)[C@H](CC(C)C)NC(=O)[C@H](CC(=O)O)NC(=O)[C@H](CCCCN)NC(=O)CNC(=O)[C@H](Cc1ccc(O)cc1)NC(=O)[C@H](CC(=O)O)NC(=O)[C@@H](NC(=O)[C@@H](NC(=O)[C@@H](NC(=O)[C@H](CCC(N)=O)NC(=O)[C@H](Cc1ccccc1)NC(=O)[C@H](Cc1ccc(O)cc1)NC(=O)[C@H](CCC(N)=O)NC(=O)[C@H](CO)NC(=O)[C@@H](NC(=O)[C@H](CC(C)C)NC(=O)[C@H](CO)NC(=O)[C@H](CCCNC(=N)N)NC(=O)[C@H](CC(C)C)NC(=O)[C@H](CC(C)C)NC(=O)[C@H](CCCNC(=N)N)NC(=O)[C@H](CCCCN)NC(=O)[C@H](CCCNC(=N)N)NC(=O)[C@H](CC(C)C)NC(=O)[C@H](CCCCN)NC(=O)[C@H](CCCNC(=N)N)NC(=O)[C@H](CC(C)C)NC(=O)[C@@H](N)Cc1c[nH]cn1)C(C)C)[C@@H](C)O)C(C)C)[C@@H](C)O)C(=O)O` [T-027] (H-HLRKLRKRLLRSLVSQYFQTVTDYGKDLM-OH; N-terminus and C-terminus assumed): the half-maximal effective concentration (EC50) in experiment [1] (3.16-100 μM peptides, 15 minutes) is 56.6 µM; in experiment [2] it was 40.1 µM. In addition, the DMPC solubilizing activity entry in experiment [1] (FIGS. 2A-2D and 3A-3C) is reported as “significant activity”. For the same compound, the cholesterol import titration entry in experiment [3] was “concentration-dependent increase in cholesterol import”; in experiment [5], “concentration-dependent cholesterol import activity”. Also, the “GAG dependence of cholesterol import” value in experiment [4] and in experiment [6] was “rely on GAG binding for cholesterol import activity” each time.

By Kd is commonly meant the concentration at which binding is half-saturated. Read a low Kd as tighter binding. `CC(C)C[C@H](NC(=O)[C@H](CCCNC(=N)N)NC(=O)[C@H](CC(=O)O)NC(=O)[C@H](CCC(N)=O)NC(=O)[C@H](CC(C)C)NC(=O)[C@H](CCCCN)NC(=O)[C@H](CC(=O)O)NC(=O)CNC(=O)[C@H](CC(=O)O)NC(=O)[C@H](CCCNC(=N)N)NC(=O)[C@H](Cc1ccccc1)NC(=O)[C@H](CC(C)C)NC(=O)[C@H](CCCNC(=N)N)NC(=O)[C@H](CCCCN)NC(=O)[C@H](CCCNC(=N)N)NC(=O)[C@H](CC(C)C)NC(=O)[C@H](CCCCN)NC(=O)[C@H](CCCNC(=N)N)NC(=O)[C@H](CC(C)C)NC(=O)[C@@H](N)Cc1c[nH]cn1)C(=O)N[C@@H](C)C(=O)N[C@@H](CCC(=O)O)C(=O)N[C@@H](Cc1ccc(O)cc1)C(=O)N[C@@H](CCC(N)=O)C(=O)N[C@@H](C)C(=O)N[C@@H](CCCNC(=N)N)C(=O)N[C@@H](C)C(=O)N[C@@H](CCCCN)C(=O)N[C@@H](CCC(=O)O)C(=O)N[C@@H](C)C(=O)N[C@@H](Cc1ccccc1)C(=O)N[C@@H](CC(=O)O)C(=O)N[C@@H](CCCNC(=N)N)C(=O)O` [T-060] (H-HLRKLRKRLFRDGDKLQDRLAEYQARAKEAFDR-OH; N-terminus and C-terminus assumed) yielded a Kd in experiment [7] of 150 ± 41.7 µM.
